The source of these data is patent US20250002448A1, “ALLOSTERIC MODULATORS OF NICOTINIC ACETYLCHOLINE RECEPTORS” (MERCK SHARP & DOHME LLC, priority 2021, published 2025).

The test concerns the target T1, human a7 nAChR (Homo sapiens, UniProt P36544).
T1 construct: catalogue number not given
Kind of test: automated patch-clamp electrophysiology functional assay (Assay A), IonFlux HT. It counts as cell-based. The following applies: HEK cell line stably expressing human RIC-3 and human a7, whole-cell population patch, 40 μM acetylcholine. The method, then:
The a7 nAChR positive allosteric modulator (PAM) activity of the present compounds may be tested using assays known in the art. The a7 nAChR PAMs described herein have activities in an automated patch-clamp electrophysiology functional assay as described in the examples. The assay was performed using the lonFlux HT in a whole-cell, population patch configuration. See Golden et al. Assay Drug Dev. Technol. (2011) 9:608-619. The compounds were assessed for their ability to modulate the function of the human a7 nAChR stably expressed in a HEK cell line both in the presence, and in the absence of the natural a7 agonist acetylcholine. By performing a series of such measurements at different concentrations, the effective concentration of the a7 nAChR PAMs (EC50) was determined. See Spencer et al. Assay Drug Dev. Technol. (2012) 10:313-324.
Direct activation of a7 (agonism), and potentiation of acetylcholine-evoked a7 currents was determined as follows:
Automated patch-clamp electrophysiology was performed using the IonFlux HT (Fluxion Biosciences Inc., San Francisco, CA) in the whole-cell, population patch configuration. Test compounds were assessed for their ability to modulate the function of the a7 nicotinic acetylcholine receptor both in the presence, and in the absence of the natural a7 agonist acetylcholine. A HEK cell line stably expressing both human RIC-3 and human a7 (PrecisION hnAChR a7/RIC-3. Eurofins Pharma, St. Charles, MO) was cultured in 175 cm^2 triple-layer tissue culture flasks to no more than 90% confluency in DMEM/F-12 growth media supplemented with 10% heat-inactivated fetal bovine serum, 1% non-essential amino acids. 0.625 μg/mL Puromycin, and 400 μg/mL Geneticin. Immediately prior to assay, cells were detached by first aspirating growth media, rinsing with Dulbecco's phosphate buffered saline, and then adding 10 mL of Accutase (Innovative Cell Technologies, San Diego, CA) to the flask and then incubating at 37° C. for 5 minutes. Detached cells were then recovered by the addition of 40 mL of CHO-serum-free media supplemented with 25 mM HEPES, and rocked gently in a 50 ml conical tube for 20 minutes prior to patch-clamp assay. After recovery, cells were pelleted by centrifugation at 1.000 RPM for 1 minute in a compact bench top centrifuge: recovery media was aspirated and cells were resuspended in external recording solution (150 mM NaCl, 5 mM KCl, 2 mM CaCl2), 1 mM MgCl2, 10 mM HEPES, 12 mM dextrose) to a density of 5.0×10^6 cells/mL. The cell suspension was added to the cell inlet wells on an IonFlux HT population patch plate which had previously been rinsed and primed with deionized H2O. Test compounds were serially diluted in DMSO and then resuspended to the final test concentration in external recording solution, with, or without 40 μM acetylcholine added to the external recording solution: test compounds were then transferred to the IonFlux HT population patch plate. Internal recording solution (110 mM TrisPO4, 28 mM TrisBase, 0.1 mM CaCl2), 2 mM MgCl2, 11 mM EGTA, 4 mM MgATP) was added to the internal recording solution inlet wells on the IonFlux HT patch plate previously loaded with cells and test compounds, and the plate loaded into the lonFlux HT instrument. A protocol was executed on the IonFlux HT to trap the cells, break into the cells, and establish the whole-cell recording configuration: cells were voltage-clamped at a holding potential of −60 mV for the duration of the experiment, all experiments were conducted at room temperature, and the IonFlux HT injection pressure was 8 psi for solution applications. Upon establishing the whole-cell configuration, external recording solution was perfused into the recording chambers for 120 seconds and then 40 μM acetylcholine was applied for 1 second and immediately washed off with external recording solution for 60 seconds. […]

Where two headings read alike, the source gives them in different places.

T1 sequence (P36544 23-502): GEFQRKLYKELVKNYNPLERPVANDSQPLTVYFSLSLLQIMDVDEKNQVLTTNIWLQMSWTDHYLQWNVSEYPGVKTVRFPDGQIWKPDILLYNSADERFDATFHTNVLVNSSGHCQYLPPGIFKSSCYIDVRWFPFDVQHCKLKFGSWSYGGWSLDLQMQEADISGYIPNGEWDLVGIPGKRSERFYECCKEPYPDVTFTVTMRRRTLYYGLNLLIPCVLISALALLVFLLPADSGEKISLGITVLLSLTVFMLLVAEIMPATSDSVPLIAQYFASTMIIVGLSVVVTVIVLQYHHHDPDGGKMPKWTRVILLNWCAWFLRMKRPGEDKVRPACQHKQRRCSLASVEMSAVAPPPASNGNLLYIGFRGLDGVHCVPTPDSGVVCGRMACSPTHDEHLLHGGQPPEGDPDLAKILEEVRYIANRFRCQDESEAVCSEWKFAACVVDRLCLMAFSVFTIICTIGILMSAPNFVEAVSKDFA

In the case of `CCOc1ccc([C@H](COC)NC(=O)C2CC23CCc2ccccc23)cc1` (mixture of isomers) [Example 1, N-[(1R)-1-(4-Ethoxyphenyl)-2-Methoxy-Ethyl[-2′,3′-Dihydrospiro]Cyclopropane-1,1′-Indene]-2-Carboxamide, Mixture a], the EC50 was 4.5 µM (read-out: a7 nAChR EC50) and 0.5 to 5 µM (read-out: α7 nAChR Potency).
`CCOc1ccc([C@H](COC)NC(=O)C2CC23CCc2ccccc23)cc1` (mixture of isomers) [Example 2, N-[(1R)-1-(4-Ethoxyphenyl)-2-Methoxy-Ethyl]-2′,3′-Dihydrospiro[Cyclopropane-1,1′-Indene]-2-Carboxamide, Mixture B]: the EC50 was 0.42 µM (read-out: a7 nAChR EC50) and 0.1 to 0.5 µM (read-out: α7 nAChR Potency).
Take `O=C(NC1(c2ccc(F)cc2)COC1)C1CC12CCc1ccccc12` (racemic) [Example A1, N-[3-(4-Fluorophenyl)oxetan-3-yl]-2′, 3′-dihydrospiro[cyclopropane-1,1′-indene]-2-carboxamide]: the EC50 was 3.2 µM (read-out: a7 nAChR EC50) and 0.5 to 5 µM (read-out: α7 nAChR Potency).
Take `COc1ccc(C2(NC(=O)[C@@H]3C[C@]34COc3ccc(F)cc34)CC2)cn1` (relative stereo) [Example A16, cis-5-Fluoro-N-[1-(6-methoxypyridin-3-yl)cyclopropyl]-2H-spiro[1-benzofuran-3,1′-cyclopropane]-2′-carboxamide]: the EC50 (read-out: α7 nAChR Potency) is 0.5 to 5 µM.
Turning to `CCOc1ccc([C@H](COC)NC(=O)C2CC23CCc2ccc(F)cc23)cc1` (single isomer, unassigned) [Example A2], the EC50 was 1.6 µM (read-out: a7 nAChR EC50) and 0.5 to 5 µM (read-out: α7 nAChR Potency).
In the case of `CCOc1ccc([C@H](COC)NC(=O)C2CC23CCc2ccc(F)cc23)cc1` (single isomer, unassigned) [Example A3], the EC50 is 0.7 µM (read-out: a7 nAChR EC50) and 0.5 to 5 µM (read-out: α7 nAChR Potency).
Take `CCOc1ccc([C@H](COC)NC(=O)C2CC23CCCc2ccccc23)cc1` (single isomer, unassigned) [Example B1]: the EC50 is 0.74 µM (read-out: a7 nAChR EC50) and 0.5 to 5 µM (read-out: α7 nAChR Potency).
On to `CCOc1ccc([C@H](COC)NC(=O)C2CC23CCc2cc(F)ccc23)cc1` (single isomer, unassigned; diastereomer b) [Example 4], for which the EC50 reads like this: (read-out: a7 nAChR EC50) 0.59 µM; (read-out: α7 nAChR Potency) 0.5 to 5 µM.
`CCOc1ccc([C@H](COC)NC(=O)C2CC23COc2ccc(F)cc23)cc1` (single isomer, unassigned; diastereomer d) [Example 5]: the EC50 was 0.48 µM (read-out: a7 nAChR EC50) and 0.1 to 0.5 µM (read-out: α7 nAChR Potency).
`CCOc1ccc([C@H](COC)NC(=O)C2CC23COc2ccc(F)cc23)cc1` (stereo in doubt) [Example A10, cis-N-[(1R)-1-(4-Ethoxyphenyl)-2-methoxyethyl]-5-fluoro-2H-spiro[I-benzofuran-3,1′-cyclopropane]-2′-carboxamide]: for the setting “read-out: α7 nAChR Potency”, the EC50 was in the range of 0.5 to 5 µM.
`CCOc1ccc([C@@H](NC(=O)C2CC23COc2ccc(F)cc23)C(F)F)cn1` (stereo in doubt) [Example A12, cis-N-[(1R)-1-(6-Ethoxypyridin-3-yl)-2,2-difluoroethyl]-5-fluoro-2H-spiro[1-benzofuran-3,1′-cyclopropane]-2′-carboxamide]: the EC50 is, setting by setting: (read-out: a7 nAChR EC50) 3 µM; (read-out: α7 nAChR Potency) 0.5 to 5 µM.
For `CCOc1ccc([C@H](CF)NC(=O)C2CC23COc2ccc(F)cc23)cn1` (stereo in doubt) [Example A13, cis-N-[(1R)-1-(6-Ethoxypyridin-3-yl)-2-fluoroethyl]-5-fluoro-2H-spiro[1-benzofuran-3,1′-cyclopropane]-2′-carboxamide], the EC50 by setting is: (read-out: a7 nAChR EC50) 0.79 µM; (read-out: α7 nAChR Potency) 0.5 to 5 µM.
`O=C(N[C@@H](C(F)F)C1CCCCC1)C1CC12COc1ccc(F)cc12` (stereo in doubt) [Example A14, cis-N-[(1R)-1-Cyclohexyl-2,2-difluoroethyl]-5-fluoro-2H-spiro[1-benzofuran-3,1′-cyclopropane]-2′-carboxamide]: the EC50 (read-out: α7 nAChR Potency) lay in the range of 0.5 to 5 µM.
Consider `O=C(N[C@@H](CO)C1CCCCC1)C1CC12COc1ccc(F)cc12` (stereo in doubt) [Example A15, cis-N-[ (1R)-1-Cyclohexyl-2-hydroxyethyl]-5-fluoro-2H-spiro[1-benzofuran-3,1′-cyclopropane]-2′-carboxamide], for which the EC50 reads like this: (read-out: a7 nAChR EC50) 0.77 µM; (read-out: α7 nAChR Potency) 0.5 to 5 µM.
On to `CCOc1ccc([C@H](COC)NC(=O)[C@@H]2C[C@]23CCc2ccccc23)cc1` [Example 3, (1R,2R)-N-[ (1R)-1-(4-Ethoxyphenyl)-2-Methoxy-Ethyl]-2′,3′-Dihydrospiro[Cyclopropane-1,1′-Indene]-2-Carboxamide], for which the EC50 was 0.69 µM (read-out: a7 nAChR EC50) and 0.5 to 5 µM (read-out: α7 nAChR Potency).
Regarding `O=C(N[C@@H](CO)C1CCCCC1)C1CC12CCc1ccc(F)cc12` (stereo partly drawn) [Example A4, N-[(1R)-1-Cyclohexyl-2-hydroxyethyl]-6′-fluoro-2′, 3′-dihydrospiro[cyclopropane-1,1′-indene]-2-carboxamide], the EC50 was 1.2 µM (read-out: a7 nAChR EC50) and 0.5 to 5 µM (read-out: α7 nAChR Potency).
The matching figures for `CCOc1ccc([C@H](CO)NC(=O)C2CC23CCc2ccc(F)cc23)cn1` (stereo partly drawn) [Example A5, N-[(1R)-1-(6-Ethoxypyridin-3-yl)-2-hydroxyethyl]-6′-fluoro-2′, 3′-dihydrospiro[cyclopropane-1,1′-indene]-2-carboxamide]: 1.4 µM and 0.5 to 5 µM.
With `O=C(NC1(c2ccc(F)cc2)COC1)C1CC12CCc1ccc(F)cc12` (centres unmarked) [Example A6], for the setting “read-out: α7 nAChR Potency”, the EC50 fell in the range of 0.5 to 5 µM.
Take `O=C(N[C@@H](C(F)F)C1CCCCC1)C1CC12CCc1ccc(F)cc12` (stereo partly drawn) [Example A7, N-[(1R)-1-Cyclohexyl-2,2-difluoroethyl]-6′-fluoro-2′, 3′-dihydrospiro[cyclopropane-1,1′-indene]-2-carboxamide]: the EC50 (read-out: α7 nAChR Potency) is 0.5 to 5 µM.
On to `O=C(N[C@@H](CO)C1CCCCC1)C1CC12COc1ccccc12` (some centres unmarked) [Example A8], for which the EC50 runs as follows: (read-out: a7 nAChR EC50) 0.63 µM; (read-out: α7 nAChR Potency) 0.5 to 5 µM.
With `O=C(NC1(c2ccc(F)cc2)COC1)C1CC12COc1ccccc12` (centres unmarked) [Example A9, N-[3-(4-Fluorophenyl)oxetan-3-yl]-2H-spiro[1-benzofuran-3,1′-cyclopropane]-2′-carboxamide], the EC50 by setting is: (read-out: a7 nAChR EC50) 1.1 µM; (read-out: α7 nAChR Potency) 0.5 to 5 µM.
On the same counts, the results for `CCOc1ccc(C(CO)NC(=O)C2CC23COc2ccc(F)cc23)cn1` [Example A11, cis-N-[ (1R)-1-(6-Ethoxypyridin-3-yl)-2-hydroxyethyl]-5-fluoro-2H-spiro[1-benzofuran-3,1′-cyclopropane]-2′-carboxamide] are 5.8 µM and 5 to 50 µM.
Turning to `COc1cc(C2(NC(=O)C3CC34COc3ccc(F)cc34)CC2)ccn1` (stereo not drawn) [Example A17, cis-S-Fluoro-N-[1-(2-methoxypyridin-4-vl)cyclopropyl]-2H-spiro[1-benzofuran-3,1′-cyclopropane]-2′-carboxamide], the EC50 by setting is: (read-out: a7 nAChR EC50) 2.3 µM; (read-out: α7 nAChR Potency) 0.5 to 5 µM.
